Values belong to the compound of their own block, whether it stands above or below them.
Tests used:
NCI-H1975 [1] = test: Antitumor activity against human NCI-H1975 cells xenografted in mouse model assessed as tumor growth inhibition at 80 mg/kg, po relative to control; assay type: functional; settings: read-out: TGI
[2] = molecular target: Epidermal growth factor receptor (Homo sapiens, UniProt P00533, C797S/EX19DEL/T790M); test: Inhibition of EGFR C797S/T790M/Del19 mutant (unknown origin)
[3] = molecular target: Epidermal growth factor receptor (Homo sapiens, UniProt P00533); test: Inhibition of wild type EGFR (unknown origin)
Epidermal growth factor receptor (Homo sapiens, UniProt P00533), sequence (P00533 whole entry): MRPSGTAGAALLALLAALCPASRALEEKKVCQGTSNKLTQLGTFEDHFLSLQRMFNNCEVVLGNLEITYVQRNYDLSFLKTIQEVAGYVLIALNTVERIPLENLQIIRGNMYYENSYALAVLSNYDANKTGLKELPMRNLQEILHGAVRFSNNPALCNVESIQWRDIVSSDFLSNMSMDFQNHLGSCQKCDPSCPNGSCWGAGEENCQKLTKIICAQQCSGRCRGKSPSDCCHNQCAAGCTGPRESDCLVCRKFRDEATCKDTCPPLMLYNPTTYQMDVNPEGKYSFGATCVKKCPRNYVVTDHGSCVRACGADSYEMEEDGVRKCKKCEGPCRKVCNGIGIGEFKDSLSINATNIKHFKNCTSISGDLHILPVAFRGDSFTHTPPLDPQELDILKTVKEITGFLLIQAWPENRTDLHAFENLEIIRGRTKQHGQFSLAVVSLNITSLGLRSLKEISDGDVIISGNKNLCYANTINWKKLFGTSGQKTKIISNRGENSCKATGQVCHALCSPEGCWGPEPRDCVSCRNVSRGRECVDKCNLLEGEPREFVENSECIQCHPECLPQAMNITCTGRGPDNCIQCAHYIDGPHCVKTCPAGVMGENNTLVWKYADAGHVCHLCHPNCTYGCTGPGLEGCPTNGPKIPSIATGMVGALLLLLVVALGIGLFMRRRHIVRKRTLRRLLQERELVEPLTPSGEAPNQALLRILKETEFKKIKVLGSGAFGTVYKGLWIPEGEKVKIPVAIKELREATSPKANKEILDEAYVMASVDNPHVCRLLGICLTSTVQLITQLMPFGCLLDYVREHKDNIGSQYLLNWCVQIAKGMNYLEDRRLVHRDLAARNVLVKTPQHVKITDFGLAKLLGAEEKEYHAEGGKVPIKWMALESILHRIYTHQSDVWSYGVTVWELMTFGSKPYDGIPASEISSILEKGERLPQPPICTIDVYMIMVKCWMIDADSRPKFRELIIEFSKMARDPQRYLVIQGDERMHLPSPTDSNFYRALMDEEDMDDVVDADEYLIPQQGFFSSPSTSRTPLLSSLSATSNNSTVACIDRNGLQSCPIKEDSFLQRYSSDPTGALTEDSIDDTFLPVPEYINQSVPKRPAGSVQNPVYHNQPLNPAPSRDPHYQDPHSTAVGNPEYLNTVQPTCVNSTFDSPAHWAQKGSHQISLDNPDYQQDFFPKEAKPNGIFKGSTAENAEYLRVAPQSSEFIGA

[4] = molecular target: Epidermal growth factor receptor (Homo sapiens, UniProt P00533, C797S/L858R/T790M); test: Inhibition of EGFR L858R/T790M/C797S mutant (unknown origin)
Epidermal growth factor receptor (Homo sapiens, UniProt P00533, C797S/L858R/T790M), sequence (P00533 25-1210 T790M/C797S/L858R limits assumed): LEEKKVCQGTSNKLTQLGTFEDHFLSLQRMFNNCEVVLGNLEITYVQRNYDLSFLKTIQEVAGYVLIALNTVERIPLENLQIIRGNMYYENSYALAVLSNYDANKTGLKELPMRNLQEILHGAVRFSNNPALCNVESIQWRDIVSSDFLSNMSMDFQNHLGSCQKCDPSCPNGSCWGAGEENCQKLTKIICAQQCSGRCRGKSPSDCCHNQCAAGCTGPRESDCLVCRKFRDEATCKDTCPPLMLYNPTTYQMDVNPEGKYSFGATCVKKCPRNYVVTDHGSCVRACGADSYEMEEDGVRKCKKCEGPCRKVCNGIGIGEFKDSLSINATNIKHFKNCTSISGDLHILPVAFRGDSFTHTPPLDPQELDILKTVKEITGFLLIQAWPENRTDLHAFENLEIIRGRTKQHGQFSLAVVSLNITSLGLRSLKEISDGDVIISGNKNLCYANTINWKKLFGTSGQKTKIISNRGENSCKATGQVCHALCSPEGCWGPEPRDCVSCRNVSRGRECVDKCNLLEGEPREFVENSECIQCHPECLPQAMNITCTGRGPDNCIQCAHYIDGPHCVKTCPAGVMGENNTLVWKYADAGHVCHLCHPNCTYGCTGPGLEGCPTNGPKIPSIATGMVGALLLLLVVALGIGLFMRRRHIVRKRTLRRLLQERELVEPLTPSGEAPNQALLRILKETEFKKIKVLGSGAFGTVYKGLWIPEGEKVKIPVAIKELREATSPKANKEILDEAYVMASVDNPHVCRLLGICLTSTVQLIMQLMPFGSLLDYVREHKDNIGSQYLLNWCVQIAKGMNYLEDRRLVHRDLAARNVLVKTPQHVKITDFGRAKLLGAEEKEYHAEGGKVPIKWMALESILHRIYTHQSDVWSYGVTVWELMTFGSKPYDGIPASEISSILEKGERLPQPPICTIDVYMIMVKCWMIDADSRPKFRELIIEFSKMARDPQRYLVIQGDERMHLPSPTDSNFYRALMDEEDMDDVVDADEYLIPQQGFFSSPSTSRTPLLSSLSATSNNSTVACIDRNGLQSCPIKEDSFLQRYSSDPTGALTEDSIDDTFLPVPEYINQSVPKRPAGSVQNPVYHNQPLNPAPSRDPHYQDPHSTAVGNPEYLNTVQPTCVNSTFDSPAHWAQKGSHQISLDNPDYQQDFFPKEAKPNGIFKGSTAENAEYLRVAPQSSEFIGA

[5] = molecular target: von Hippel-Lindau disease tumor suppressor/Epidermal growth factor receptor (Homo sapiens, UniProt P00533+P40337, L858R); test: PROTAC activity at VHL/EGFR L858R mutant in human NCI-H3255 cells assessed as induction of EGFR degradation incubated for 24 hrs by immunoblotting analysis; assay type: cell-based
von Hippel-Lindau disease tumor suppressor/Epidermal growth factor receptor, sequence (P00533 25-1210 L858R limits assumed, stated change not applied): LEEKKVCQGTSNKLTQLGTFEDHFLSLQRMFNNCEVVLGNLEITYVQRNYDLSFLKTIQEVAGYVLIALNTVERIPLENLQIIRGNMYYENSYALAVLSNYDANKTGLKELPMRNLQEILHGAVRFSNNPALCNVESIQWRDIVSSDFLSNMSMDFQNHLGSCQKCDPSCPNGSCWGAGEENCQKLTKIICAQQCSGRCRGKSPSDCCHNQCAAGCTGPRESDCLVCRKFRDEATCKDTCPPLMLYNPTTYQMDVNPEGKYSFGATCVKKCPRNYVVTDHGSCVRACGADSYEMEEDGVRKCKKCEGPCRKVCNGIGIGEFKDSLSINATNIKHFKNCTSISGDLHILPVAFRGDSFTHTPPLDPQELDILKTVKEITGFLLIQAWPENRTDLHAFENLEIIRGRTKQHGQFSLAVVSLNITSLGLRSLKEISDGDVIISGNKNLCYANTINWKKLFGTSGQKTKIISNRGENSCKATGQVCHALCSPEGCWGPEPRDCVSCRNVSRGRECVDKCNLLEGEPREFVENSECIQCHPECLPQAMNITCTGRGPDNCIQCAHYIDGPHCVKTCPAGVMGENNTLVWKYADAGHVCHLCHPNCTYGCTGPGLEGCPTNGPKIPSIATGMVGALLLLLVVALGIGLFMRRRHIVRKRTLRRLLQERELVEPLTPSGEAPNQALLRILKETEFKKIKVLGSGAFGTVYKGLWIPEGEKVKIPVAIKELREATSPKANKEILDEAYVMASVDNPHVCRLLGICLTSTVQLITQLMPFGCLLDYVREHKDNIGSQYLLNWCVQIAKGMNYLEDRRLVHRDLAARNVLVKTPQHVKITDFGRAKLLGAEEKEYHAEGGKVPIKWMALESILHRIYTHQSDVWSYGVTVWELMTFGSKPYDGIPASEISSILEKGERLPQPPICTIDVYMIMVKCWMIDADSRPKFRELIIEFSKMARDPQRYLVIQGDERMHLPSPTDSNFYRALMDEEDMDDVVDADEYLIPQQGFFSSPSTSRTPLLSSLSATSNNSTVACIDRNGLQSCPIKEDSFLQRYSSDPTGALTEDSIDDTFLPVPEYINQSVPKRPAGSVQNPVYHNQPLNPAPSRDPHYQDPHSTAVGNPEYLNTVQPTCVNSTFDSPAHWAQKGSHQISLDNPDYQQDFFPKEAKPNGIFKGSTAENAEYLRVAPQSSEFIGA
von Hippel-Lindau disease tumor suppressor/Epidermal growth factor receptor, sequence (P40337 whole entry, stated change not applied): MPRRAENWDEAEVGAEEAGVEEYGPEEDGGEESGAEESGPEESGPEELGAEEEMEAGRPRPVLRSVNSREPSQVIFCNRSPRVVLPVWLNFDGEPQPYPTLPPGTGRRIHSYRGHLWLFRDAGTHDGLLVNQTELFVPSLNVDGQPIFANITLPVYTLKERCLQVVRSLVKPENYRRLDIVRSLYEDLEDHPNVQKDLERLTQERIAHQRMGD

BaF3 [6] = test: Antiproliferative activity against mouse BaF3 cells harboring EGFR C797S/T790M/del19 mutant assessed as growth inhibition incubated for 72 hrs by CellTiter-Glo assay; assay type: functional, cell-based; settings: BaF3, 72 h
[7] = Antiproliferative activity against human NCI-H1975 cells harboring EGFR L858R/T790M double mutant assessed as inhibition of cell growth incubated for 72 hrs by CellTiter-Glo assay; assay type: functional, cell-based; settings: NCI-H1975, 72 h
[8] = Oral bioavailability in rat; settings: in vivo
[9] = Inhibition of EGFR L858R/T790M double mutant (unknown origin); set-up: species or system Homo sapiens
[10] = Antiproliferative activity against human NCI-H1975 cells harboring EGFR L858R/T790M/C797S […] mutant assessed as inhibition of cell growth; assay type: functional, cell-based
BaF3 [11] = test: Antiproliferative activity against mouse BaF3 cells harboring EGFR L858R/T790M/C797S mutant assessed as growth inhibition incubated for 72 hrs by CellTiter-Glo assay; assay type: functional, cell-based; settings: BaF3, 72 h
[12] = Intrinsic clearance in human liver microsomes; assay type: ADME, Microsome
[13] = Intrinsic clearance in human hepatocytes; assay type: ADME, cell-based, Hepatocyte
[14] = Intrinsic clearance in rat liver microsomes; assay type: ADME, Microsome
NCI-H1975 [15] = test: Antitumor activity against human NCI-H1975 cells xenografted in mouse model assessed as tumor growth inhibition at 40 mg/kg, po relative to control; assay type: functional; settings: read-out: TGI
[16] = Antiproliferative activity against mouse BaF3 cells harboring EGFR L858R/T790M double mutant assessed as inhibition of cell growth
[17] = PROTAC activity at CRBN/EGFR L858R/T790M double mutant in human HCC827 cells assessed as induction of EGFR degradation; assay type: cell-based

Epidermal growth factor receptor (Homo sapiens, UniProt P00533, C797S/EX19DEL/T790M), sequence (P00533 whole entry, looked up, stated change not applied): as the sequence (P00533 whole entry) above

SMILES: Cc1cc(Nc2ncc(Br)c(Nc3ccccc3S(=O)(=O)C3CC3)n2)ccc1N1CCN(C)CC1
- inhibition in vivo at 80 mg/kg (NCI-H1975 [1]): 73.2%

SMILES: Oc1ccccc1-c1nc(NCN2CCOCC2)c2ccccc2n1
- IC50 [2]: 1730 nM
- IC50 [3]: 37100 nM

SMILES: COc1cc(N2CCN(CCCCCCCC(=O)N[C@H](C(=O)N3C[C@H](O)C[C@H]3C(=O)N[C@@H](C)c3ccc(-c4scnc4C)cc3)C(C)(C)C)CC2)ccc1Nc1ncc(Cl)c(Nc2ccccc2P(C)(C)=O)n1
- DC50 [5]: 8 nM

SMILES: CO[C@@H]1CCN(c2nccc(Nc3cc4c(C(C)C)ccc(N5C[C@H](CS(C)(=O)=O)[C@H]5C)c4cn3)n2)C[C@@H]1F [TIGOZERTINIB]
- IC50 [7]: 1.1 nM
- bioavailability [8]: 48%

SMILES: N#Cc1ccc(O)c(-c2nc(NCc3ncccn3)c3ccccc3n2)c1
- IC50 [10]: 1200 nM

SMILES: CC(C)c1cnc(N2CC(CS(C)(=O)=O)C2)c2cnc(Nc3ccnc(N4CC[C@@H](O)[C@@](C)(F)C4)n3)cc12
- IC50 [7]: 4.8 nM
- bioavailability [8]: 2%

SMILES: CC(C)c1ccc(N2CC(CS(C)(=O)=O)C2)c2cnc(Nc3ccnc(N4CC[C@@H](O)[C@@](C)(F)C4)n3)cc12
- IC50 [7]: 2.7 nM
- bioavailability [8]: 85%

SMILES: Oc1ccccc1-c1nc(NCc2c[nH]cn2)c2ccccc2n1
- IC50 [2]: 4.84 nM
- IC50 [3]: > 50000 nM

SMILES: CC(C)c1ccc(N2C[C@H](CS(C)(=O)=O)[C@H]2C)c2cnc(Nc3ccnc(N4CC[C@@H](O)[C@@](C)(F)C4)n3)cc12
- CLint [12]: 7.2 µL/min/mg
- CLint [13]: 41 µL/min/1e6 cells
- CLint [14]: 43 µL/min/mg
- IC50 [7]: 1 nM
- bioavailability [8]: 50%

SMILES: Oc1ccc(Br)cc1-c1nc(NCc2ncccn2)c2ccccc2n1
- IC50 [4]: 440 nM
- IC50 [10]: 12600 nM

SMILES: COc1cc2ncnc(Nc3ccc(F)c(Cl)c3)c2cc1OCCCN1CCN(CCC(=O)NCCCCCCCCOc2cccc3c2C(=O)N(C2CCC(=O)NC2=O)C3=O)CC1 (centres undefined)
- DC50 [17]: 5 nM

Further lines, with some results ahead:

- IC50 [4]: 2.3 nM
SMILES: COc1cc2c(Nc3ccc(NC(=O)C(c4cc(F)ccc4F)N4Cc5ccccc5C4=O)cc3F)ncnc2cc1OCC1CCN(C)CC1 (centres undefined)

- IC50 (BaF3 [6]): 26.8 nM
SMILES: COc1cc(N2CCC(N3CCN(C)CC3)CC2)c(C)cc1Nc1ncc(Br)c(Nc2ccc3nccnc3c2P(C)(C)=O)n1

- IC50 [9]: 3 nM
SMILES: O=C(Nc1nccs1)C(c1cc(F)ccc1O)N1Cc2ccccc2C1=O (centres undefined)

- IC50 [2]: 3.38 nM
- IC50 [3]: > 50000 nM
SMILES: Cn1cnc(Nc2nc(-c3ccccc3O)nc3ccccc23)c1

- IC50 [9]: 0.063 nM
SMILES: CN1CCC(c2ccc(-c3ccc4c(c3)C(=O)N(C(C(=O)Nc3nccs3)c3cc(F)ccc3O)C4)cc2)CC1 (centres undefined)

- IC50 (BaF3 [6]): 90 nM
- IC50 (BaF3 [11]): 120 nM
SMILES: CN1CCN(c2ccc(Nc3ncc(Cl)c(Nc4ccccc4P(C)(C)=O)n3)cc2Br)CC1

- IC50 (BaF3 [6]): 12 nM
- IC50 (BaF3 [11]): 16 nM
- IC50 [4]: 0.09 nM
SMILES: [2H]C([2H])([2H])c1cc(Nc2ncc(Br)c(Nc3ccccc3S(=O)(=O)C3CC3)n2)ccc1N1CCN(C([2H])([2H])[2H])CC1
- inhibition in vivo at 40 mg/kg (NCI-H1975 [15]): 75.1%

- IC50 [16]: 96 nM
SMILES: O=C1CCC(N2C(=O)c3cccc(NCCOCCOCCOCCN4CCN(c5ccc(-c6ccc7c(c6)C(=O)N(C(C(=O)Nc6nccs6)c6ccccc6)C7)cn5)CC4)c3C2=O)C(=O)N1 (centres undefined)
